Experimental data from US20260199377A1, “CANNABINOIDS FOR TREATING ESSENTIAL TREMOR IN PATIENTS” (Jazz Pharmaceuticals Research UK Limited, priority 2022, published 2026).
Counter-ions that a name gives are not always drawn.

Experiments:
[1] = system: Harmaline-Induced Essential Tremor in Rats; assay: Harmaline-induced essential tremor in rats (observational score, Tremor Monitor waveforms); type: in vivo, rats (male; Sprague Dawley); settings: for tremor, as indexed by OS, TI, and MPP: overall conclusion, propranolol 20 mg/kg
Method: Subjects: Naïve rats (114; male; Sprague Dawley; aged 6-9 weeks; weight 190-369 g) were obtained from Charles River UK and acclimated to the testing room in home cages (standard caging; housed in groups of 4) up to 7 days following arrival at the test facility, with free access to food (Certified Rodent CR 14% Protein Rodent Diet, LabDiet® 5CR4) and water on a 12 h/12 h light/dark cycle from arrival (lights on at 7:00 AM). All subjects were weighed at the beginning of the study and assigned to treatment groups.
Tremor Monitor™ (“TM”): A TM from San Diego Instruments was obtained to measure movement waveforms (i.e., amplitude (“A”) (dBV) as a function of frequency (“f”) (Hz)) (threshold 10 dBV).
NBX/Harmaline Experimental Group (number of subjects (“n”)=36 (12 at each dose of NBX)): Subjects were habituated to the TM for 2×5 minutes (with a 20 minute gap between the two 5 minute periods). The next day, 5.2, 10.4, or 20.8 mg/kg (total THC and CBD) NBX was administered p.o. (oral gavage) in sesame oil to the subjects at 2 mL/kg. 100 minutes after the NBX was administered, 10 mg/kg of harmaline was administered i.p. in water to the subjects at 5 mL/kg. 20, 40, and 60 minutes after the harmaline was administered to the subjects, the subjects were observationally scored in their home cages on a scale from 0 to 4 (wherein scores (“observational scores” (“OS”)) of 0, 1, 2, 3, and 4 correspond, as summarized in TABLE A below, to “No tremor”, “Occasional tremor affecting only head and neck”, “Intermittent tremor affecting whole body”, “Persistent tremor affecting whole body and tail”, and “Severe tremor rendering subject unable to stand”, respectively) and, immediately thereafter, movement waveforms of the subjects were measured with the TM for 5 minutes each.
Thereafter, the administration of the harmaline and NBX (“acute treatment”) was continued once per day until the harmaline and NBX had been administered for 10 days (“sub-chronic treatment”). 20, 40, and 60 minutes after the final administration of the NBX and harmaline, the subjects were again observationally scored on the scale described (and summarized in TABLE A) above and movement waveforms of the subjects were again measured with the TM for 5 minutes each.
Propranolol/Harmaline Comparison Group (n=12): The Experimental Group protocol was repeated, except for administering, instead of NBX, 20 mg/kg of propranolol i.p. 30 minutes before the harmaline was administered (as the maximum effect of propranolol can be observed approximately 30 minutes after administration).
Vehicle/Harmaline Control Group (n=12): The Experimental Group protocol was repeated, except for administering, instead of NBX, sesame oil (vehicle) at 2 mL/kg.
Calculations and Statistical Analysis: For each movement waveform measured, the following values were calculated: average amplitude (“A”) (average power) for the range of frequency (“f”) from
Tremor Index (“TI”=AP2−AP1); and Motion Power Percentage (“MPP” (%)=AP2/(AP1+AP2)×100). Further, for each subject, the following values were calculated: total number of tremor events (10 dBV threshold; sum of 20-, 40-, and 60-minute data); total average length of one tremor event (average of 20-, 40-, and 60-minute data); and total cumulative time of tremor events (sum of 20-, 40-, and 60-minute data), wherein “total” refers to combination of the 20-minute data, the 40-minute data, and the 60-minute data (e.g., “total cumulative time of tremor events” means total of the cumulative time of tremor events for the 20-minute data, the cumulative time of tremor events for the 40-minute data, and the cumulative time of tremor events for the 60-minute data). For the 20-, 40-, and 60-minute data independently, OS, MPP, and TI were analyzed by Kruskal-Wallis followed by Dunn's multiple comparison test. […]

[2] = system: rats; assay: Propranolol/Vehicle and NBX/Vehicle control groups (saline instead of harmaline), tremor measures; type: in vivo, rats (male; Sprague Dawley); settings: vs Vehicle/Vehicle group; for Tremor Index (TI) / observational score (OS): propranolol 20 mg/kg i.p. or NBX 5.2, 10.4, 20.8 mg/kg p.o.; for Motion Power Percentage (MPP): except for NBX at 20.8 mg/kg total THC and CBD at the 20 minute timepoint
Method: Propranolol/Vehicle Control Group (n=12): The Propranolol/Harmaline Comparison Group protocol was repeated, except for administering, instead of harmaline, saline (vehicle) at 5 mL/kg.
Vehicle/Vehicle Control Group (n=6): The Experimental Group protocol was repeated, except for administering, instead of NBX, sesame oil (vehicle) at 2 mL/kg, and, instead of harmaline, saline (vehicle) at 5 mL/kg.
NBX/Vehicle Control Group (n=36 (12 at each dose)): The Experimental Group protocol was repeated, except for administering, instead of harmaline, saline (vehicle) at 5 mL/kg.
Tremor Index (“TI”=AP2−AP1); and Motion Power Percentage (“MPP” (%)=AP2/(AP1+AP2)×100). Further, for each subject, the following values were calculated: total number of tremor events (10 dBV threshold; sum of 20-, 40-, and 60-minute data); total average length of one tremor event (average of 20-, 40-, and 60-minute data); and total cumulative time of tremor events (sum of 20-, 40-, and 60-minute data), wherein “total” refers to combination of the 20-minute data, the 40-minute data, and the 60-minute data (e.g., “total cumulative time of tremor events” means total of the cumulative time of tremor events for the 20-minute data, the cumulative time of tremor events for the 40-minute data, and the cumulative time of tremor events for the 60-minute data). For the 20-, 40-, and 60-minute data independently, OS, MPP, and TI were analyzed by Kruskal-Wallis followed by Dunn's multiple comparison test. For the 20-, 40-, and 60-minuted data combined, the total number of tremor events, total average length (duration) of one tremor event, and total cumulative time spent in tremor were analyzed by Kruskal-Wallis followed by a Tukey's multiple comparison test. Results were considered significant for p<0.05. Outlier removal was not applied due to non-responders in the harmaline group which could not be identified in the treatment groups.

[3] = harmaline 10 mg/kg i.p., acute treatment, all timepoints, Vehicle/Harmaline vs Vehicle/Vehicle group
[4] = harmaline 10 mg/kg i.p., acute treatment, sum of 20-, 40-, 60-minute data, Vehicle/Harmaline vs Vehicle/Vehicle group
[5] = harmaline 10 mg/kg i.p., sub-chronic treatment, all timepoints, Vehicle/Harmaline vs Vehicle/Vehicle group
[6] = harmaline 10 mg/kg i.p., sub-chronic treatment, sum of 20-, 40-, 60-minute data, Vehicle/Harmaline vs Vehicle/Vehicle group
[7] = acute treatment, propranolol 20 mg/kg i.p., harmaline 10 mg/kg i.p., all timepoints (20, 40, 60 min), vs Vehicle/Harmaline group
[8] = sub-chronic treatment (10 days), propranolol 20 mg/kg i.p., harmaline 10 mg/kg i.p., all timepoints, vs Vehicle/Harmaline group
[9] = sub-chronic treatment, propranolol 20 mg/kg i.p., harmaline 10 mg/kg i.p., vs Vehicle/Harmaline group

COc1ccc2c3c([nH]c2c1)C(C)=NCC3 [harmaline, Harmaline]
observational score (OS) ([1]; harmaline 10 mg/kg i.p., acute treatment, 20, 40 and 60 min post-dose, Vehicle/Harmaline vs Vehicle/Vehicle group): significantly increased
Motion Power Percentage (MPP) [1, 3]: significantly increased
Tremor Index (TI) [1, 3]: significantly increased
total average length of one tremor event ([1]; harmaline 10 mg/kg i.p., acute treatment, average of 20-, 40-, 60-minute data, Vehicle/Harmaline vs Vehicle/Vehicle group): significantly increased
total cumulative time of tremor events [1, 4]: significantly increased
total number of tremor events [1, 4]: significantly increased
observational score (OS) ([1]; harmaline 10 mg/kg i.p., sub-chronic treatment, 20, 40 and 60 min post-dose, Vehicle/Harmaline vs Vehicle/Vehicle group): significantly increased
Motion Power Percentage (MPP) [1, 5]: significantly increased
Tremor Index (TI) [1, 5]: significantly increased
total average length of one tremor event ([1]; harmaline 10 mg/kg i.p., sub-chronic treatment, average of 20-, 40-, 60-minute data, Vehicle/Harmaline vs Vehicle/Vehicle group): significantly increased
total cumulative time of tremor events [1, 6]: significantly increased
total number of tremor events [1, 6]: significantly increased

CC(C)NCC(O)COc1cccc2ccccc12 (stereo not drawn) [propranolol, Propranolol hydrochloride]
observational score (OS) ([1]; acute treatment, propranolol 20 mg/kg i.p. 30 min before harmaline 10 mg/kg i.p., 20, 40 and 60 min post-dose, vs Vehicle/Harmaline group): significantly decreased
Motion Power Percentage (MPP) [1, 7]: significantly decreased
Tremor Index (TI) [1, 7]: significantly decreased
total number of tremor events ([1]; acute treatment, propranolol 20 mg/kg i.p., harmaline 10 mg/kg i.p., vs Vehicle/Harmaline group, the only one of the three event measures significantly reduced): significantly reduced
tremor, as indexed by OS, TI, and MPP ([1]; acutely): significantly reduced
tremor, as indexed by OS, TI, and MPP ([1]; sub-chronically): significantly reduced
Motion Power Percentage (MPP) [1, 8]: significantly decreased
Tremor Index (TI) [1, 8]: significantly decreased
observational score (OS) ([1]; sub-chronic treatment (once daily, 10 days), propranolol 20 mg/kg i.p., harmaline 10 mg/kg i.p., 20, 40 and 60 min, vs Vehicle/Harmaline group): significantly decreased
total average length of one tremor event [1, 9]: significantly reduced
total cumulative time of tremor events [1, 9]: significantly reduced
total number of tremor events [1, 9]: significantly reduced
Tremor Index (TI) ([2]; acute treatment): no significant effect
observational score (OS) ([2]; acute treatment): no significant effect
Motion Power Percentage (MPP) ([2]; acute treatment): no significant effect
Tremor Index (TI) ([2]; sub-chronic treatment): no significant effect
observational score (OS) ([2]; sub-chronic treatment): no significant effect
Motion Power Percentage (MPP) ([2]; sub-chronic treatment): no significant effect
